The supplement of paper PMC8967900

Key:
Test in all cases: selective drug sensitivity score (sDSS, relative to normal bone marrow) (sDSS (score)); higher = more potent and effective on the cell line relative to normal bone marrow cells
Details in all cases: 72 h
[1] = tested on: 380
[2] = tested on: ALL-PO
[3] = tested on: ALL-SIL
[4] = tested on: CCRF-CEM
[5] = tested on: DND-41
[6] = tested on: HPB-ALL
[7] = tested on: KARPAS-45
[8] = tested on: KASUMI-10
[9] = tested on: KASUMI-2
[10] = tested on: LC4-1
[11] = tested on: MHH-CALL-2
[12] = tested on: MHH-CALL-4
[13] = tested on: NALL-1
[14] = tested on: PF-382
[15] = tested on: RCH-ACV
[16] = tested on: REH
[17] = tested on: RPMI-8402
[18] = tested on: SEM cells
[19] = tested on: TANOUE
[20] = tested on: TMD5
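Note: ALL cell lines in 384-well plates, five doses spanning 10,000-fold, each plate scaled between vehicle and 100 µmol/L benzalkonium chloride controls, sDSS an adapted area-under-curve metric.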

| Structure (SMILES) | selective drug sensitivity score [1] | selective drug sensitivity score [2] | selective drug sensitivity score [3] | selective drug sensitivity score [4] | selective drug sensitivity score [5] | selective drug sensitivity score [6] | selective drug sensitivity score [7] | selective drug sensitivity score [8] | selective drug sensitivity score [9] | selective drug sensitivity score [10] | selective drug sensitivity score [11] | selective drug sensitivity score [12] | selective drug sensitivity score [13] | selective drug sensitivity score [14] | selective drug sensitivity score [15] | selective drug sensitivity score [16] | selective drug sensitivity score [17] | selective drug sensitivity score [18] | selective drug sensitivity score [19] | selective drug sensitivity score [20] |
| --- | --- | --- | --- | --- | --- | --- | --- | --- | --- | --- | --- | --- | --- | --- | --- | --- | --- | --- | --- | --- |
| CC(C)[C@H]1C(=O)N[C@@H](CCCNC(=N)N)C(=O)NCC(=O)N[C@@H](CC(=O)O)C(=O)N[C@H](Cc2ccccc2)C(=O)N1C [Cilengitide] (top concentration 10000 nM) | 11.3 | 0 | 0 | 0 | 0 | 0 | 0 | 0 | 0 | 0 | 7.1 | 5.5 | 11.8 | 0 | 0 | 0 | 0 | 0 | 0 | 7.5 |
| COCCNCc1ccc(-c2cc3nccc(Oc4ccc(NC(=O)C5(C(=O)Nc6ccc(F)cc6)CC5)cc4F)c3s2)nc1 [Sitravatinib] (top concentration 2500 nM) | 2.18 | 14.8 | 15.9 | 0.18 | 0.98 | -0.42 | 3.78 | 20 | -0.42 | 1.28 | 6.78 | 5.48 | 9.38 | 1.08 | 7.38 | 2.88 | 2.38 | 26.2 | -0.42 | 11 |
| O=C(Nc1c[nH]nc1-c1nc2ccc(CN3CCOCC3)cc2[nH]1)NC1CC1 [AT9283] (top concentration 1000 nM) | 11.3 | 6.32 | 15.6 | 12.5 | -0.68 | -1.48 | 9.22 | 8.42 | 6.22 | 12.4 | 3.42 | 4.92 | 9.02 | 7.72 | 6.02 | 11.6 | 4.32 | 14.7 | -4.38 | 7.32 |
| O=C1CCc2c(Oc3ccc4c(c3)[C@@H]3[C@H](O4)[C@H]3c3nc4cc(C(F)(F)F)ccc4[nH]3)ccnc2N1 [Lifirafenib (BGB-283)] (top concentration 10000 nM) | 0.98 | 6.98 | 30 | 4.18 | 1.18 | 0.98 | 2.88 | 7.98 | 1.98 | 3.28 | 4.88 | 7.58 | 8.28 | 3.18 | 10.3 | 3.48 | 2.28 | 15.7 | 0.48 | 15.9 |
| CC(C)(C)Cn1c(N)nc2ccc(-c3[nH]c(C(C)(C)C)nc3-c3ccc(F)cc3)nc21 [Ralimetinib] (top concentration 10000 nM) | -0.84 | 8.56 | 3.36 | 2.26 | 5.36 | 3.66 | 5.36 | 0.86 | 1.56 | 4.76 | 1.46 | -0.84 | -0.84 | 2.06 | 11.5 | 2.36 | 4.26 | 1.76 | -0.44 | -0.74 |
| COC(=O)N[C@@H](C)CNc1nccc(-c2cn(C(C)C)nc2-c2cc(Cl)cc(NS(C)(=O)=O)c2F)n1 [Encorafenib] (top concentration 1000 nM) | 0 | 0 | 0 | 0.2 | 0 | 1.1 | 2.6 | 0 | 0 | 2.9 | 1.7 | 0 | 0 | 1.5 | 1 | 1.6 | 0 | 0.1 | 0 | 0 |
| NC(=O)/C(=C/n1cnc(-c2cc(C(F)(F)F)cc(C(F)(F)F)c2)n1)c1cncnc1 [Eltanexor] (top concentration 10000 nM) | 13.6 | 11.4 | 10.3 | 9.66 | 12.6 | 5.86 | 8.96 | 2.36 | 16.8 | 8.16 | 11.4 | 6.76 | 2.76 | 8.36 | 12.7 | 7.06 | 9.36 | 3.96 | -11.8 | -1.84 |
| CN1CCC(CNc2ccc3ncc(-c4cccc(OC(F)(F)F)c4)n3n2)CC1 [SGI-1776] (top concentration 10000 nM) | -2.38 | 7.02 | -1.48 | 0.52 | -1.18 | -4.08 | -2.08 | 4.82 | 0.62 | -1.08 | 1.22 | 0.32 | -2.18 | -2.68 | 0.62 | -2.78 | -2.68 | 6.92 | -8.18 | -0.98 |
| C[C@@]1(C(=O)Nc2ccc(F)nc2)CCCN1c1nc(Nc2cc(C3CC3)n[nH]2)c2cccn2n1 (top concentration 10000 nM) | 18.1 | 13 | 10.5 | 11.8 | -5.02 | 8.28 | 6.18 | 4.68 | -6.52 | 11.4 | 11.7 | 4.58 | 8.98 | 6.18 | 6.08 | 9.08 | 5.58 | 8.98 | -6.52 | -0.12 |
| NC1(c2ccc(-c3nc4ccn5c(=O)[nH]nc5c4cc3-c3ccccc3)cc2)CCC1 [MK-2206] (top concentration 1000 nM) | 4.76 | 5.46 | 2.96 | 6.36 | -1.64 | 1.06 | 2.26 | -0.44 | 6.46 | 0.06 | 9.66 | 5.76 | 6.26 | 3.26 | 13.2 | 6.26 | 1.96 | 4.36 | -1.64 | 7.36 |
| Nc1cc(C(F)(F)F)c(-c2cc(N3CCOCC3)nc(N3CCOCC3)n2)cn1 [Buparlisib] (top concentration 10000 nM) | 7.18 | 9.58 | 8.28 | 5.28 | -0.32 | 6.38 | 5.28 | 2.48 | 2.08 | 6.08 | 5.28 | 2.78 | 1.28 | 5.38 | 13.3 | 5.18 | 6.88 | 7.08 | -1.22 | -1.82 |
